Measurements: patent publication US20230220206A1, “REJUVENATING AGENTS FOR ASPHALT RECYCLING” (BASF SE, priority 2020, published 2023)
Like-named read-outs stand apart in the source and are kept apart here.

Key:
[1] = MSCR test, percentage elastic recovery; format: physicochemical; conditions: bitumen 20/30 + 5% compound
[2] = format: physicochemical; conditions: aged bitumen 50/70 BP + 5% compound
[3] = MSCR elastic recovery of rejuvenated aged bitumen; format: physicochemical; conditions: aged bitumen 50/70 BP + 5% compound
[4] = Softening point of rejuvenated aged bitumen; format: physicochemical; conditions: aged bitumen 50/70 PCK Schwedt + 5% compound
[5] = format: physicochemical; conditions: aged bitumen 50/70 PCK Schwedt + 5% compound
[6] = MSCR elastic recovery of rejuvenated aged bitumen; format: physicochemical; conditions: aged bitumen 50/70 PCK Schwedt + 5% compound
[7] = MSCR elastic recovery of rejuvenated RAP bitumen; format: physicochemical; conditions: bitumen extracted from RAP + 5% compound
[8] = Low temperature performance, bending beam rheometer (BBR) at −16° C.; format: physicochemical; conditions: bitumen 20/30 + 5% compound
Experimental: (§1) Different bitumen samples were rejuvenated as in Example 1, and the BBR values S (flexural creep stiffness) and m […] were evaluated at −16° C. The results were compared to the not rejuvenated bitumen sample as well as to the bitumen rejuvenated with the benchmark RheoFalt® HP-AM (Comp. 1.3).

[9] = Softening point of rejuvenated polymer-modified bitumen; format: physicochemical; conditions: Olexobit 45 + 5% compound
[10] = format: physicochemical; conditions: Olexobit 45 + 5% compound
[11] = MSCR elastic recovery of rejuvenated polymer-modified bitumen; format: physicochemical; conditions: Olexobit 45 + 5% compound
[12] = BBR of rejuvenated polymer-modified bitumen; format: physicochemical; conditions: Olexobit 45 + 5% compound
Experimental: as §1

[13] = Force ductility of rejuvenated polymer-modified bitumen; format: physicochemical; conditions: Olexobit 45 + 5% compound
Excerpt: Herewith, it will be shown that the positive effects of the here claimed rejuvenating agents can also be applied to PmB, in this case Olexobit 45. Olexobit 45 was therefore rejuvenated according to the procedure of Example 1.

[14] = TD NMR relaxation time measurements (SE-CPMG, multicomponent fitting); format: physicochemical; conditions: for 1/<1/T2e>: harmonic average relaxation time of the mobile components
Excerpt: TD NMR, also known as NMR relaxometry, is a known NMR technique and relies on measuring the relaxation times of the nuclear spin system instead of frequency-domain spectra. […] Also, sample preparation is much simpler as there are no concerns about sample homogeneity and no solvents are needed.
Like that, a clear distinction between protons in a solid, amorphous and liquid component can be made with good accuracy.
Bitumen 20/30 was rejuvenated with some of the here claimed rejuvenating agents according to example 1. The pure bitumen 20/30 as well as the rejuvenated bitumen 20/30 samples were then analyzed by TD NMR. To do so, all samples were heated up to 80° C. to allow filling of the samples into NMR tubes. After that, TD NMR measurements at 30° C., 80° C. and 140° C. were conducted using the SE-CMPG sequence. This sequence consists of a solid echo combined with a so-called CPMG (Carr-Purcell-Meiboom-Gill) train of subsequent spin echoes with alternating phase and is capable of recording the decay of coherence in the transverse nuclear magnetization over about 5 orders of magnitude in time. Depending on the measurement temperature, the experimental data were then fitted with semi-empirically selected multicomponent models involving several Gaussian and exponential components:
S(t)=[pg1 exp(−(t/T2g1)^2)+pg2 exp(−(t/T2g2)^2)]+pe1 exp(−t/T2e1)[pe2 exp(−t/T2e2)+pe3 exp(−t/T2e3)]
In order to assess the effect of temperature on the molecular mobility of the bitumen, experiments were conducted at temperatures of 30° C., 80° C. and 140° C., and the following models turned out to provide adequate fits of the respective normalized signal decay curves: • two Gaussians and one exponential at 30° C., • two Gaussians and two exponentials at 80° C., • three exponentials at 140° C.
From the fitting, different values can be obtained: • The p values (pg1, pg2, pe1, pe2 and pe3), indicating the signal fraction of the individual component scaled in the range from 0 to 1 • The T2 values (T2g1, T2g2, T2e1, T2e2 and T2e3), indicating the relaxation times that correspond to each of the individual components. The longer the relaxation time, the higher the molecular mobility of the respective component • In addition to the values T2e1, T2e2 and T2e3, we also calculated the average relaxation time of the mobile components, 1/<1/T2e>, for the temperatures at which more than one mobile component exist (80 and 140° C.). 1/<1/T2e> Is calculated as the harmonic average of the relaxation times involved:
[formula] • The type of the component, those being: • g1: the rigid component • g2: the partially mobile component • e1, e2 and e3: mobile components with increasingly high local molecular mobilities
It is believed that the rigid component g1 is directly correlated with the amount of the asphaltene aggregates. The mobile component(s) on the other hand can be attributed to the maltene phase.

[15] = bitumen 20/30 + 5% compound
[16] = Softening point ring & ball of rejuvenated bitumen; conditions: bitumen 20/30 rejuvenated with 5% of the compound, 180° C., 30 minutes
[17] = 30° C., bitumen 20/30 + additive
[18] = 80° C., bitumen 20/30 + additive
[19] = 140° C., bitumen 20/30 + additive

For Polypropylenglycol bis glycidylether, the “MSCR % Rec. (0.1 kPa)” value ([1]; 0.1 kPa) was 8%, the “MSCR % Rec. (1.6 kPa)” value ([1]; 1.6 kPa) was 2% and the “MSCR % Rec. (3.2 kPa)” value ([1]; 3.2 kPa) was 1%. For the same substance, the “η(135° C.) [mPas]” value [2] was 800 mPas, the “MSCR % Rec. (0.1 kPa)” value ([3]; 0.1 kPa) was 7% and the “MSCR % Rec. (1.6 kPa)” value ([3]; 1.6 kPa) was 3%. For the same substance, the “MSCR % Rec. (3.2 kPa)” value ([3]; 3.2 kPa) was 1%, the “SP [° C.]” value [4] was 52.5 °C and the “η(135° C.) [mPas]” value [5] was 800 mPas. For the same substance, the “MSCR % Rec. (0.1 kPa)” value ([6]; 0.1 kPa) was 5%, the “MSCR % Rec. (1.6 kPa)” value ([6]; 1.6 kPa) was 1% and the “MSCR % Rec. (3.2 kPa)” value ([6]; 3.2 kPa) was 0%. For the same substance, the “MSCR % Rec. (0.1 kPa)” value ([7]; 0.1 kPa) was 10%, the “MSCR % Rec. (1.6 kPa)” value ([7]; 1.6 kPa) was 6% and the “MSCR % Rec. (3.2 kPa)” value ([7]; 3.2 kPa) was 3%. For the same substance, the “S-value [MPa] (flexural creep stiffness)” value [8] was 105 MPa, the m-value [8] was 0.43 and the “SP [° C.]” value [9] was 48.0 °C. The “η(135° C.) [mPas]” value [10] was 650 mPas, the “MSCR % Rec. (0.1 kPa)” value ([11]; 0.1 kPa) was 15% and the “MSCR % Rec. (1.6 kPa)” value ([11]; 1.6 kPa) was 4%. For the same substance, the “MSCR % Rec. (3.2 kPa)” value ([11]; 3.2 kPa) was 1%, the “BBR S-value [MPa]” value [12] was 120 MPa and the BBR m-value [12] was 0.39. For the same substance, the “Force Ductility Fmax [N]” value [13] was 14 N, the “Force Ductility W [J/cm^2]” value [13] was 1.1 J/cm^2 and the “T2e1” value [14, 17] was 0.20 ms. For the same substance, the “T2g1” value [14, 17] was 0.016 ms, the “T2g2” value [14, 17] was 0.044 ms and the pe1 ([14]; 30° C., mobile component, bitumen 20/30 + additive) was 0.41. The pg2 ([14]; 30° C., partially mobile component, bitumen 20/30 + additive) was 0.18, the pg1 ([14]; 30° C., signal fraction of rigid component, bitumen 20/30 + additive) was 0.40 and the “T2e1” value [14, 18] was 0.47 ms. The “T2e2” value [14, 18] was 2.42 ms, the “T2g1” value [14, 18] was 0.017 ms and the “T2g2” value [14, 18] was 0.053 ms. The pe1 [14, 18] was 0.46, the pe2 [14, 18] was 0.35 and the pg1 [14, 18] was 0.10. For the same substance, the pg2 [14, 18] was 0.078, the “1/<1/T2e>” value ([14]; 80° C.) was 0.72 ms and the “T2e1” value [14, 19] was 0.20 ms. For the same substance, the “T2e2” value [14, 19] was 4.45 ms, the “T2e3” value [14, 19] was 24.51 ms and the pe1 [14, 19] was 0.18. The pe2 [14, 19] was 0.47, the pe3 [14, 19] was 0.34 and the “1/<1/T2e>” value ([14]; 140° C.) was 0.94 ms. The “η(135° C.) [mPas]” value [15] was 900 mPas and the “SP [° C.] (softening point)” value [16] was 50.0 °C.
